14 compounds from patent US4263318A, “N-alkoxy- and N-aryloxysulfinylcarbamate esters” (priority 1979, dated 1981) can be followed below.

What all share (assay type): in vivo
Series [1] has as its system house flies, Musca domestica. Kind of series: Insecticidal activity against house flies (topical on the notum, mortality at 24 h). Conditions: for LD50: Musca domestica, topical, read-out: House flies LD50. The procedure:
(§1) Representative compounds of the N-aryloxy- and N-alkoxysulfinylcarbamate esters of the invention were tested for insecticidal activity against two insect species, house flies, Musca domestica, and mosquito larvae, Culex pipiens. Stock 1% concentrated solutions of each of the test compounds were made in acetone, and such solutions diluted with acetone to a concentration of 0.001-0.1%. House files were treated topically on the notum by 1 μL of each of the diluted acetone solutions and percent mortality was counted 24 hours after application. Insects were held at a constant temperature of 60° F. Larvicidal activity was determined by applying 1 ml of the acetone solutions in 100 ml of water containing 20 3rd instar mosquito larvae. Results are presented as LD50 in μg/g for house flies and LC50 in ppm for mosquito larvae.

Series [2] is described as follows: Mammalian toxicity, oral, Swiss white mice. Conditions: mouse, in vivo. As to the method: (§2) Mammalian toxicity was determined against Swiss white mice.
Series [3] has as its system mosquito larvae, Culex pipiens. Kind of series: Larvicidal activity against mosquito larvae. Conditions: 1 ml acetone solution in 100 ml water containing 20 3rd instar larvae. The procedure: as §1
For the next series, the system named is Swiss white mice. Kind of series: Mammalian toxicity, oral, Swiss white mice. Conditions: compared with aldicarb / carbofuran. As to the method: as §2
The mark [4] stands for this setting: oral, corn oil carrier, read-out: Mice LD50.
Setting [5] is: 1 μL acetone solution on the notum, mortality 24 hours after application, 60° F.

As usually defined, the LD50 is the dose at which mortality reaches 50%.

Where two headings read alike, the source gives them in different places. Bounds are passed on as bounds.

As for `Cc1cccc(C)c1OS(=O)N(C)C(=O)Oc1cccc2c1OC(C)(C)C2` (centres unmarked) [V, 2,3-dihydro-2,2-dimethylbenzofuranyl-7(methyl)(2,6-dimethylphenoxysulfinyl)carbamate], the 50% lethal dose (LD50) is 13.5 mg/kg in series [1] (24 h) and 100 mg/kg in series [2] (setting [4]).
Regarding `CCCCOS(=O)N(C)C(=O)ON=C(C)SC` (centres unmarked) [XI, S-methyl N-[N'-methyl-N'-butoxysulfinylcarbamoyloxy]thioacetimidate], the LD50 in series [1] (setting [5]) amounted to 5.5 mg/kg.
For the compound `CCCCCCOS(=O)N(C)C(=O)Oc1cccc2c1OC(C)(C)C2` (centres unmarked) [Example I, 2,3-dihydro-2,2-dimethylbenzofuranyl-7(methyl)(hexoxysulfinyl)carbamate], the LD50 amounted to 13 mg/kg in series [1] (24 h) and 280 mg/kg in series [2] (setting [4]). The “Culex LC50” value in series [3] is on record as 0.0025 ppm.
Taken in the same sequence, the figures for `CCCCCCOS(=O)N(C)C(=O)Oc1ccccc1OC(C)C` (centres unmarked) [VIII, 2-isopropoxyphenyl (methyl)(n-hexoxysulfinyl)carbamate] were 42 mg/kg, more than 1000 mg/kg and 0.01 ppm.
As for `CCCCOS(=O)N(C)C(=O)Oc1cccc2c1OC(C)(C)C2` (centres unmarked) [III, 2,3-dihydro-2,2-dimethylbenzofuranyl-7(methyl)(n-butoxysulfinyl)carbamate], the LD50 in series [1] (24 h) came out at 16 mg/kg; in series [2] (setting [4]), 160 mg/kg.
Consider `CNC(=O)O/N=C/C(C)(C)SC` [aldicarb, 2-methyl-2-(methylthio)propionaldehyde 0-(methylcarbamoyl)oxime, reference compound], for which the LD50 in series [2] (po, comparison value for parent aldicarb, read-out: LD50 (parent carbamate aldicarb, mammalian toxicity, text)) was in the range of 0.3 to 0.5 mg/kg.
Take `CCCCCCCCCCOS(=O)N(C)C(=O)ON=CC(C)(C)SC` (centres unmarked) [XII, 2-methyl-2-(methylthio)propionaldehyde O-[(methyl)(decoxysulfinyl)carbamoyl]oxime]: the LD50 in series [1] (setting [5]) amounted to 11.5 mg/kg; in series [2] (setting [4]) it was 60 mg/kg. In addition, the “toxicity to house flies compared with parent carbamate” value in series [1] (compared with aldicarb / carbofuran) is recorded as “comparable toxicity”. Besides, the “Culex LC50” value in series [3] stood at 0.006 ppm. The “mammalian safety/toxicity compared with parent carbamate” value in the series on Swiss white mice is “much safer to mammals”.
In the case of `CCCCCCOS(=O)N(C)C(=O)Oc1cccc(C(C)C)c1` (centres unmarked) [VII, 3-isopropylphenyl (methyl)(n-hexoxysulfinyl)carbamate], the results for the median lethal dose (LD50) in series [1] (24 h) and in series [2] (setting [4]) were 80 mg/kg and more than 1000 mg/kg, respectively.
In the case of `CCCCCCOS(=O)N(C)C(=O)Oc1cccc2ccccc12` (centres unmarked) [XIII, 1-naphthyl(methyl)(hexoxysulfinyl)carbamate], the 50% lethal dose (LD50) in series [1] (24 h) is 360 mg/kg; in series [2] (setting [4]), more than 1000 mg/kg.
Consider `CCCCCCOS(=O)N(C)C(=O)ON=C(C)SC` (centres unmarked) [X, S-methyl N-[N'-methyl-N'-hexoxysulfinylcarbamoyloxy]thioacetimidate], for which the values for the LD50 in series [1] (setting [5]) and in series [2] (setting [4]) were 6.5 mg/kg and 260 mg/kg, respectively.
For the compound `CN(C(=O)Oc1cccc2c1OC(C)(C)C2)S(=O)Oc1ccccc1` (centres unmarked) [IV, 2,3-dihydro-2,2-dimethylbenzofuranyl-7(methyl)(phenoxysulfinyl)carbamate], the LD50 in series [1] (24 h) was determined as 6.4 mg/kg; in series [2] (setting [4]) it was 42 mg/kg. Moreover, in series [3], the “Culex LC50” value is 0.0055 ppm.
With `CC(C)Oc1ccccc1OC(=O)N(C)S(=O)OC(C)(C)C` (centres unmarked) [IX, 2-isopropoxyphenyl (methyl)(t-butoxysulfinyl)carbamate], the LD50 in series [1] (24 h) came to 65 mg/kg; in series [2] (setting [4]), 400 mg/kg.
In the case of `CN(C(=O)Oc1cccc2c1OC(C)(C)C2)S(=O)OC(C)(C)C` (centres unmarked) [II, 2,3-dihydro-2,2-dimethylbenzofuranyl-7(methyl)(t-butoxysulfinyl)carbamate], the 50% lethal dose (LD50) in series [1] (24 h) was 2.2 mg/kg; in series [2] (setting [4]), 40 mg/kg. Moreover, the “Culex LC50” value in series [3] is on record as 0.0058 ppm.
Consider `CCCCOS(=O)N(C)C(=O)Oc1cccc(C(C)C)c1` (centres unmarked) [VI, 3-isopropylphenyl (methyl)(n-butoxysulfinyl)carbamate], for which the median lethal dose (LD50) in series [1] (24 h) amounted to 50 mg/kg.
